Reference: ChEMBL document CHEMBL5375991, “Bioorthogonal Bond Cleavage Chemistry for On-demand Prodrug Activation: Opportunities and Challenges” (J Med Chem, 2023)

Key:
[1] = Stability of compound in 3% DMSO/PBS measured after 24 hrs relative to control; type: physicochemical; conditions: read-out: Stability
[2] = Stability in human plasma measured after 4 hrs; type: ADME, cell-free; conditions: read-out: Stability

Structure (SMILES) | remaining at 24 h [1] [%] | remaining at 4 h [2] [%]
O=C(O)c1ccc(-c2[s+]c(-c3ccc(N(c4ccccc4)c4ccccc4)cc3)sc2[O-])cc1 | 47.6 | 
CCC[N+]1=C(/C=C/C2=C3Oc4cc(NC(=O)O[C@@H]5/C=C/CCCCC5)ccc4C=C3CCC2)C(C)(C)c2ccccc21 |  | 77
